Laboratory results published in patent US20040096481A1, “Pet food compositions having electrostatically charged ingredient” (priority 2002, published 2004).

Assay: Effect of negatively charged amino acid solutions on integrity of cat hair (scan microscope)
Conditions: 0.40 g cat hair in 100 g solution, 100° F., 24 hours, 810× magnification; for degree of hair damage, 0.125% solution: 0.125% amino acid solution diluted from 1.0% solution adjusted to pH 11.3
Description: In this example, various negatively charged amino acid solutions were prepared for testing on cat hair to determine how the solution affected the integrity of the hair. First, a 1.0% amino acid solution was prepared by mixing 5.0 g amino acid with 495 g of water. The resulting pH value of each amino acid solution at this point differed, based largely upon the different pK values for each amino acid. A sufficient quantity of sodium hydroxide solution (50.0%) was added to the 1.0% amino acid solution to adjust the pH to 11.3. Weaker amino acid solutions (0.5%, 0.25%, and 0.125%) were subsequently prepared by dilution of the 1.0% solution.
Approximately 0.40 g of cat hair were mixed with 100 g samples of each respective amino acid solution. The cat hair and amino acid solution were kept at 100° F. for 24 hours. Photographs of the cat hairs were taken with a Topcon Technology Company Model ISI-X408 electrical scan microscope at 810× magnification and the degree of hair damage and loss of identifying characteristics was noted.

SMILES | degree of hair damage, 0.125% solution | also measured
CSCCC(N)C(=O)O (racemic) [DL-methionine] | No damage | 
C[C@H](N)C(=O)O [Alanine] | Cuticle removed | 
N[C@@H](CC(=O)O)C(=O)O [Aspartic acid] | Cuticle removed | 
N[C@@H](CS)C(=O)O [Cysteine] | No damage | 
N[C@@H](CCC(=O)O)C(=O)O [Glutamic acid] | Cuticle removed | 
NCC(=O)O [Glycine] | Cuticle removed | degree of hair damage, 0.125% solution (listed as glycine): portions of the cuticle layer have been removed thereby exposing the inner cortex layer; degree of hair damage, 0.25% solution (0.25% amino acid solution diluted from 1.0% solution adjusted to pH 11.3): cuticle 14 has separated thereby forming a channel and exposing the hair cortex; degree of hair damage, 0.5% solution (0.5% amino acid solution diluted from 1.0% solution adjusted to pH 11.3): Portions of the hair cortex 18 have been completely dissolved; degree of hair damage, 1.0% solution (1.0% amino acid solution adjusted to pH 11.3): cuticle has been removed thereby exposing the hair cortex
NCCCC[C@H](N)C(=O)O [Lysine] | No damage | 
O=C(O)[C@@H]1CCCN1 [Proline] | Cuticle removed | 
